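Each compound was tested at five concentrations against cells in 96-well plates for 48 hours. TGI denotes the concentration required for complete inhibition of growth.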
Tests used:
Test in all cases: inhibition of tumour cell growth, NCI panel, 48 h
NCI/ADR-RES ovarian = tested on: NCI/ADR-RES ovarian
SF-295 CNS = tested on: SF-295 CNS
786-0 renal = tested on: 786-0 renal
M14 melanoma = tested on: M14 melanoma
A549 NSCLC = tested on: A549 NSCLC
OVCAR-8 ovarian = tested on: OVCAR-8 ovarian
MALME-3M melanoma = tested on: MALME-3M melanoma
ACHN renal = tested on: ACHN renal
OVCAR-3 ovarian = tested on: OVCAR-3 ovarian
OVCAR-4 ovarian = tested on: OVCAR-4 ovarian
TK-10 renal = tested on: TK-10 renal
MDA-MB-231 breast = tested on: MDA-MB-231 breast
UO-31 renal = tested on: UO-31 renal
NCI-H522 lung = tested on: NCI-H522 lung
MDA-N = tested on: MDA-N
SN12C renal = tested on: SN12C renal
BT-549 breast = tested on: BT-549 breast
SK-MEL-5 melanoma = tested on: SK-MEL-5 melanoma
UACC-62 melanoma = tested on: UACC-62 melanoma
U251 CNS = tested on: U251 CNS
UACC-257 melanoma = tested on: UACC-257 melanoma
K-562 leukemia = tested on: K-562 leukemia
SR leukemia = tested on: SR leukemia
EKVX NSCLC = tested on: EKVX NSCLC
DU-145 prostate = tested on: DU-145 prostate
MDA-MB-435 = tested on: MDA-MB-435
MCF7 breast = tested on: MCF7 breast
SF-539 CNS = tested on: SF-539 CNS
HT29 colon = tested on: HT29 colon
SNB-19 CNS = tested on: SNB-19 CNS
HOP-92 NSCLC = tested on: HOP-92 NSCLC
HOP-62 NSCLC = tested on: HOP-62 NSCLC
NCI-H460 lung = tested on: NCI-H460 lung
NCI-H226 lung = tested on: NCI-H226 lung
HL-60(TB) leukemia = tested on: HL-60(TB) leukemia
OVCAR-5 ovarian = tested on: OVCAR-5 ovarian
SK-MEL-2 melanoma = tested on: SK-MEL-2 melanoma
A498 renal = tested on: A498 renal
SF-268 CNS = tested on: SF-268 CNS
CCRF-CEM leukemia = tested on: CCRF-CEM leukemia
T-47D breast = tested on: T-47D breast
RPMI-8226 leukemia = tested on: RPMI-8226 leukemia
HS 578T breast = tested on: HS 578T breast
COLO 205 colon = tested on: COLO 205 colon
PC-3 prostate = tested on: PC-3 prostate
RXF 393 renal = tested on: RXF 393 renal
SK-MEL-28 melanoma = tested on: SK-MEL-28 melanoma
SK-OV-3 ovarian = tested on: SK-OV-3 ovarian
NCI-H23 lung = tested on: NCI-H23 lung
HCC-2998 colon = tested on: HCC-2998 colon
MOLT-4 leukemia = tested on: MOLT-4 leukemia
KM12 colon = tested on: KM12 colon
HCT-15 colon = tested on: HCT-15 colon
CAKI-1 renal = tested on: CAKI-1 renal
HCT-116 colon = tested on: HCT-116 colon
HOP-18 NSCLC = tested on: HOP-18 NSCLC
LXFL 529 NSCLC = tested on: LXFL 529 NSCLC
DLD-1 colon = tested on: DLD-1 colon
SNB-75 CNS = tested on: SNB-75 CNS
M19-MEL melanoma = tested on: M19-MEL melanoma
DMS 273 small cell lung = tested on: DMS 273 small cell lung
IGROV1 ovarian = tested on: IGROV1 ovarian
SW-620 colon = tested on: SW-620 colon
LOX IMVI melanoma = tested on: LOX IMVI melanoma
KM20L2 colon = tested on: KM20L2 colon

SMILES: N#CC(N=Nc1ccc(Cl)cc1)c1nc2ccccc2o1 (stereo not drawn)
- TGI (NCI/ADR-RES ovarian): > 100 µM
- TGI (SF-295 CNS): 67.9 µM
- TGI (786-0 renal): > 100 µM
- TGI (M14 melanoma): > 100 µM
- TGI (A549 NSCLC): > 100 µM
- TGI (OVCAR-8 ovarian): > 100 µM
- TGI (MALME-3M melanoma): > 100 µM
- TGI (ACHN renal): > 100 µM
- TGI (OVCAR-3 ovarian): > 100 µM
- TGI (OVCAR-4 ovarian): > 100 µM
- TGI (TK-10 renal): > 100 µM
- TGI (MDA-MB-231 breast): > 100 µM
- TGI (UO-31 renal): > 100 µM
- TGI (NCI-H522 lung): 81.1 µM
- TGI (MDA-N): > 100 µM
- TGI (SN12C renal): > 100 µM
- TGI (BT-549 breast): 95.6 µM
- TGI (SK-MEL-5 melanoma): > 100 µM
- TGI (UACC-62 melanoma): > 100 µM
- TGI (U251 CNS): > 100 µM
- TGI (UACC-257 melanoma): > 100 µM
- TGI (K-562 leukemia): 50.2 µM
- TGI (SR leukemia): > 100 µM
- TGI (EKVX NSCLC): > 100 µM
- TGI (DU-145 prostate): > 100 µM
- TGI (MDA-MB-435): > 100 µM
- TGI (MCF7 breast): > 100 µM
- TGI (SF-539 CNS): 56.2 µM
- TGI (HT29 colon): > 100 µM
- TGI (SNB-19 CNS): > 100 µM
- TGI (HOP-92 NSCLC): 70.4 µM
- TGI (HOP-62 NSCLC): > 100 µM
- TGI (NCI-H460 lung): > 100 µM
- TGI (NCI-H226 lung): > 100 µM
- TGI (HL-60(TB) leukemia): > 100 µM
- TGI (OVCAR-5 ovarian): > 100 µM
- TGI (SK-MEL-2 melanoma): 88.7 µM
- TGI (A498 renal): > 100 µM
- TGI (SF-268 CNS): > 100 µM
- TGI (CCRF-CEM leukemia): 45.6 µM
- TGI (T-47D breast): > 100 µM
- TGI (RPMI-8226 leukemia): > 100 µM
- TGI (HS 578T breast): > 100 µM
- TGI (COLO 205 colon): > 100 µM
- TGI (PC-3 prostate): > 100 µM
- TGI (RXF 393 renal): > 100 µM
- TGI (SK-MEL-28 melanoma): > 100 µM
- TGI (SK-OV-3 ovarian): > 100 µM
- TGI (NCI-H23 lung): 98.2 µM
- TGI (HCC-2998 colon): > 100 µM
- TGI (MOLT-4 leukemia): > 100 µM
- TGI (KM12 colon): > 100 µM
- TGI (HCT-15 colon): > 100 µM
- TGI (CAKI-1 renal): > 100 µM
- TGI (HCT-116 colon): > 100 µM

SMILES: COc1cc(/C=C2\[C@H]3c4c(c(OC)c(C)c(OC)c4OC)CC(C(=O)N2Cc2ccccc2)N3C)c(OC)c(C)c1OC
- TGI (SF-295 CNS): 41.5 µM
- TGI (HOP-18 NSCLC): 50.2 µM
- TGI (LXFL 529 NSCLC): 43.9 µM
- TGI (786-0 renal): 40.6 µM
- TGI (DLD-1 colon): > 100 µM
- TGI (M14 melanoma): 36 µM
- TGI (SNB-75 CNS): 82.7 µM
- TGI (A549 NSCLC): > 100 µM
- TGI (OVCAR-8 ovarian): > 100 µM
- TGI (MALME-3M melanoma): 47.3 µM
- TGI (ACHN renal): 78.7 µM
- TGI (OVCAR-3 ovarian): 31.2 µM
- TGI (OVCAR-4 ovarian): > 100 µM
- TGI (M19-MEL melanoma): 33.1 µM
- TGI (TK-10 renal): 79.2 µM
- TGI (UO-31 renal): 41.8 µM
- TGI (NCI-H522 lung): 30.2 µM
- TGI (SN12C renal): 33.1 µM
- TGI (SK-MEL-5 melanoma): 33 µM
- TGI (UACC-62 melanoma): 30.4 µM
- TGI (U251 CNS): 34.7 µM
- TGI (UACC-257 melanoma): 39.6 µM
- TGI (K-562 leukemia): 62.1 µM
- TGI (SR leukemia): 74.4 µM
- TGI (EKVX NSCLC): 67.6 µM
- TGI (SF-539 CNS): 33.4 µM
- TGI (HT29 colon): 41.1 µM
- TGI (SNB-19 CNS): 73.8 µM
- TGI (HOP-92 NSCLC): 49.9 µM
- TGI (HOP-62 NSCLC): 35.1 µM
- TGI (NCI-H460 lung): 32 µM
- TGI (DMS 273 small cell lung): 38.6 µM
- TGI (NCI-H226 lung): 24 µM
- TGI (HL-60(TB) leukemia): 36 µM
- TGI (IGROV1 ovarian): 51.6 µM
- TGI (OVCAR-5 ovarian): 71.8 µM
- TGI (A498 renal): 50.1 µM
- TGI (SF-268 CNS): 61.3 µM
- TGI (SW-620 colon): 41.5 µM
- TGI (CCRF-CEM leukemia): 42.5 µM
- TGI (LOX IMVI melanoma): 33.4 µM
- TGI (RPMI-8226 leukemia): 61.2 µM
- TGI (COLO 205 colon): 32.5 µM
- TGI (RXF 393 renal): > 100 µM
- TGI (SK-MEL-28 melanoma): 64.2 µM
- TGI (SK-OV-3 ovarian): 92 µM
- TGI (NCI-H23 lung): > 100 µM
- TGI (HCC-2998 colon): 62.8 µM
- TGI (MOLT-4 leukemia): 56.9 µM
- TGI (KM12 colon): > 100 µM
- TGI (KM20L2 colon): 37.2 µM
- TGI (CAKI-1 renal): 73.6 µM
- TGI (HCT-116 colon): > 100 µM

From PubChem BioAssay (NCI)
